Patent US20170037014A1, “FUNGICIDAL PYRAZOLES” (E. I. DU PONT DE NEMOURS AND COMPANY, priority 2014, published 2017)

Key:
[1] = test system: Puccinia recondita f sp. tritici; test: Test A: wheat leaf rust, preventive spray on wheat seedlings, visual disease rating; assay type: in vivo; settings: 100 = 100% disease control, 0 = no control
Source text: General protocol for preparing test suspensions for Tests A-D: the test compounds were first dissolved in acetone in an amount equal to 3% of the final volume and then suspended at the desired concentration (in ppm) in acetone and purified water (50/50 mix by volume) containing 250 ppm of the surfactant Trem® 014 (polyhydric alcohol esters). The resulting test suspensions were then used in Tests A-D. The test suspension was sprayed to the point of run-off on wheat seedlings. The following day the seedlings were inoculated with a spore suspension of Puccinia recondita f sp. tritici (the causal agent of wheat leaf rust) and incubated in a saturated atmosphere at 20° C. for 24 h, and then moved to a growth chamber at 20° C. for 7 days, after which time visual disease ratings were made. In the Table, a rating of 100 indicates 100% disease control and a rating of 0 indicates no disease control (relative to the controls). A dash (−) indicates no test results. All results are for 250 ppm except where followed by an “*” which indicates 50 ppm, and where followed by an “**” which indicates 10 ppm

Septoria tritici = test: Test B: wheat leaf blotch, preventive spray on wheat seedlings, visual disease rating; assay type: in vivo; settings: Zymoseptoria tritici, 100 = 100% disease control, 0 = no control
Source text: General protocol for preparing test suspensions for Tests A-D: the test compounds were first dissolved in acetone in an amount equal to 3% of the final volume and then suspended at the desired concentration (in ppm) in acetone and purified water (50/50 mix by volume) containing 250 ppm of the surfactant Trem® 014 (polyhydric alcohol esters). The resulting test suspensions were then used in Tests A-D. The test suspension was sprayed to the point of run-off on wheat seedlings. The following day the seedlings were inoculated with a spore suspension of Septoria tritici (the causal agent of wheat leaf blotch) and incubated in a saturated atmosphere at 24° C. for 48 h, and then moved to a growth chamber at 20° C. for 19 days, after which time visual disease ratings were made. In the Table, a rating of 100 indicates 100% disease control and a rating of 0 indicates no disease control (relative to the controls). A dash (−) indicates no test results. All results are for 250 ppm except where followed by an “*” which indicates 50 ppm, and where followed by an “**” which indicates 10 ppm

Botrytis cinerea = test: Test C: tomato Botrytis, preventive spray on tomato seedlings, visual disease rating; assay type: in vivo; settings: Botrytis cinerea, 100 = 100% disease control, 0 = no control
Source text: General protocol for preparing test suspensions for Tests A-D: the test compounds were first dissolved in acetone in an amount equal to 3% of the final volume and then suspended at the desired concentration (in ppm) in acetone and purified water (50/50 mix by volume) containing 250 ppm of the surfactant Trem® 014 (polyhydric alcohol esters). The resulting test suspensions were then used in Tests A-D. The test suspension was sprayed to the point of run-off on tomato seedlings. The following day the seedlings were inoculated with a spore suspension of Botrytis cinerea (the causal agent of tomato Botrytis) and incubated in a saturated atmosphere at 20° C. for 48 h, and then moved to a growth chamber at 24° C. for 3 days, after which time visual disease ratings were made. In the Table, a rating of 100 indicates 100% disease control and a rating of 0 indicates no disease control (relative to the controls). A dash (−) indicates no test results. All results are for 250 ppm except where followed by an “*” which indicates 50 ppm, and where followed by an “**” which indicates 10 ppm

[2] = test system: Blumeria graminis f sp. tritici; test: Test D: wheat powdery mildew, preventive spray on wheat seedlings, visual disease rating; assay type: in vivo; settings: Blumeria graminis, 100 = 100% disease control, 0 = no control
Source text: General protocol for preparing test suspensions for Tests A-D: the test compounds were first dissolved in acetone in an amount equal to 3% of the final volume and then suspended at the desired concentration (in ppm) in acetone and purified water (50/50 mix by volume) containing 250 ppm of the surfactant Trem® 014 (polyhydric alcohol esters). The resulting test suspensions were then used in Tests A-D. The test suspension was sprayed to the point of run-off on wheat seedlings. The following day the seedlings were inoculated with a spore dust of Blumeria graminis f sp. tritici, (also known as Erysiphe graminis f. sp. tritici, the causal agent of wheat powdery mildew) and incubated in a growth chamber at 20° C. for 8 days, after which time visual disease ratings were made. In the Table, a rating of 100 indicates 100% disease control and a rating of 0 indicates no disease control (relative to the controls). A dash (−) indicates no test results. All results are for 250 ppm except where followed by an “*” which indicates 50 ppm, and where followed by an “**” which indicates 10 ppm

melting point [°C]	SMILES	pest or weed control at 50 ppm ([1]; 50 ppm (*)) [%]	pest or weed control at 50 ppm (Septoria tritici; 50 ppm (*)) [%]	pest or weed control at 50 ppm (Botrytis cinerea; 50 ppm (*)) [%]	pest or weed control at 50 ppm ([2]; 50 ppm (*)) [%]	pest or weed control at 250 ppm ([1]; 250 ppm) [%]	pest or weed control at 250 ppm (Septoria tritici; 250 ppm) [%]	pest or weed control at 250 ppm (Botrytis cinerea; 250 ppm) [%]	pest or weed control at 250 ppm ([2]; 250 ppm) [%]
128 to 131	CCC(C)c1c(C(O)c2ccc(F)cc2Cl)c(C)nn1C (stereo not drawn) [Compound 9, α-(2-chloro-4-fluorophenyl)-1,3-dimethyl-5-(1-methylpropyl)-1H-pyrazole-4-methanol]	100	99	99	99				
146 to 149	Cc1nn(C)c(C2CCCCC2)c1C(O)c1ccc(F)cc1Cl (stereo not drawn) [Compound 8, α-(2-chloro-4-fluorophenyl)-5-cyclohexyl-1,3-dimethyl-1H-pyrazole-4-methanol]					99	99	86	93
